Where two headings read alike, the source gives them in different places.
Legend:
[1] = tested on: embryonic teratocarcinoma F9 cells; assay: Test of differentiation of embryonic teratocarcinoma F9 cells, antagonism of an agonist retinoid (secretion of the activator of plasminogen, morphology); format: cell-based, mice; details: inhibition by 50% of effect of agonist compound A (10 nM) on secretion of the activator of plasminogen, 3 days incubation, read-out: Antagonist against compound A (10 nM) Test of differentiation of F9 cells IC50
[2] = tested on: embryonic teratocarcinoma F9 cells; details: prior art; cited from earlier work

Compound | IC50 ([1]; Mus musculus, F9, 72 h) [nM] | other results
4-[7-(1-adamantyl)-6-carbonylpentyloxy-2-naphthyl]benzoic acid [Example 20] |  | IC50 [1]: 100 nM
O=C(O)c1ccc(-c2ccc3cc(OCc4ccccc4)c(C45CC6CC(CC(C6)C4)C5)cc3c2)cc1O [Example 1, 2-hydroxy-4-[7-(1-adamantyl)-6-benzyloxy-2-naphthyl]benzoic acid] | 5 | 
COCCOCOc1cc2ccc(-c3ccc(C(=O)O)cc3)cc2cc1C12CC3CC(CC(C3)C1)C2 [Example 3, 4-[7-(1-adamantyl)-6-methoxyethoxymethoxy-2-naphthyl]benzoic acid] | 2 | 
O=C(O)c1ccc(-c2ccc3cc(OCc4ccccc4)c(C45CC6CC(CC(C6)C4)C5)cc3c2)cc1 [Example 5, 4-[7-(1-adamantyl)-6-benzyloxy-2-naphthyl]benzoic acid] | 180 | 
O=C(O)c1ccc(-c2ccc3cc(C(=O)OCc4ccccc4)c(C45CC6CC(CC(C6)C4)C5)cc3c2)cc1 [Example 6, 4-[7-(1-adamantyl)-6-benzyloxycarbonyl-2-naphthyl]benzoic acid] | 500 | 
O=C(O)c1ccc(-c2ccc3cc(OCCCCCCCCO)c(C45CC6CC(CC(C6)C4)C5)cc3c2)cc1 [Example 14, 4-[7-(1-adamantyl)-6-hydroxyoctyloxy-2-naphthyl]benzoic acid] | 250 | 
COCCCCCCOc1cc2ccc(-c3ccc(C(=O)O)cc3)cc2cc1C12CC3CC(CC(C3)C1)C2 [Example 39, 4-[7-(1-adamantyl)-6-methoxyhexyloxy-2-naphthyl]benzoic acid] | 450 | 
CC1=C(/C=C/C(C)=C/C=C/C(C)=C/C(=O)O)C(C)(C)CCC1 [retinoic acid] |  | induction of differentiation of embryonic teratocarcinoma cells (F9) in mice [2]: capable of inducing differentiation

Reference: US5952382A, “Adamantyl-substituted retinoids and pharmaceutical/cosmetic compositions comprised thereof” (Centre International De Recherches Dermatologiques Galderma, priority 1995, dated 1999)
